Where two headings read alike, the source gives them in different places.
How the values were obtained:
Type in all cases: cell-based
human α1B adrenoceptor = biological target: T1, human α1B adrenoceptor (Homo sapiens, UniProt P35368); test: Phosphoinositide accumulation in cells expressing α1B; settings: for Emax: read-out: intrinsic activity (i.a.) α1B; for stimulation of inositol phosphate production, α1B: result in words
T1 construct: The entire coding region of the α1B receptor (1563 bp); expressed in transfected cells
T1 sequence (P35368 1-520): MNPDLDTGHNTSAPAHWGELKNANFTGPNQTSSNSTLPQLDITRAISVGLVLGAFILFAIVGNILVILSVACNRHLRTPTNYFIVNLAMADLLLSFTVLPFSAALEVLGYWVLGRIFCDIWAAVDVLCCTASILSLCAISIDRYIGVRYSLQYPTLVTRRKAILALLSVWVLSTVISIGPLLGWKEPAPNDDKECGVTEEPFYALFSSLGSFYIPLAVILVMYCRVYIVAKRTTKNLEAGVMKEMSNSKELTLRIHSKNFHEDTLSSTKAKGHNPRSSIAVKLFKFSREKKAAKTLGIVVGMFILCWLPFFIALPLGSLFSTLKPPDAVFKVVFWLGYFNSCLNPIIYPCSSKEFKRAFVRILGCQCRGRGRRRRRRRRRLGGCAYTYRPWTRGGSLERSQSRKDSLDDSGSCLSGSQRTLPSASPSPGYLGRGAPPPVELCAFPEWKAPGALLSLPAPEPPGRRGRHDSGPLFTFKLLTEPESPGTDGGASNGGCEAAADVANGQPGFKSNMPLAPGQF
Procedure: (§1) α1 -Adrenoceptor-Mediated Phosphoinositide Accumulation in Cultured Cell Lines
(§2) The agonist activity of test compounds was assayed by measuring their ability to generate phosphoinositide production in cells stably transfected with each of the three cloned human α1 -adrenoceptor subtypes. Cells were plated in 96-well plates and grown to confluence. The day before the assay the growth medium was changed to 100 μl of medium containing 1% serum and 0.5 μCi [^3 H] myo-inositol, and the plates were incubated overnight in a CO2 incubator (5% CO2 at 37° C.). Immediately before the assay, the medium was removed and replaced by 200 μl of PBS containing 10 mM LiCl, and the cells were equilibrated with the new medium for 20 min. During this interval cells were also equilibrated with the antagonist, added as 10 μl aliquot of a 20-fold concentrated solution in PBS.
(§3) The [^3 H] inositol-phosphate (IP) accumulation was started by adding 10 μl of a solution containing the agonist. To the first well 10 μl were added to measure basal accumulation, and 11 different concentrations of agonist were assayed in the following 11 wells of each plate row. All assays were performed in duplicate by repeating the same additions in two consecutive plate rows. The plates were incubated in a CO2 incubator for 1 hr. The reaction was terminated by adding 15 μl of 50% (v/v) trichloroacetic acid (TCA), followed by a 40 min incubation at 4° C.
(§4) After neutralizing TCA with 40 μl of 1 M Tris, the content of the wells was transferred to a Multiscreen HV filter plate (Millipore) containing Dowex AG1-X8 (200-400 mesh, formate form). The filter plates were prepared adding 200 μl of Dowex AG1-X8 suspension (50% v/v, water:resin) to each well. The filter plates were placed on a vacuum manifold to wash or eluted the resin bed. Each well was washed 2 times with 200 μl of water, followed by 2×200 μ of 5 mM sodium tetraborate/60 mM ammonium formate. The [3H] IPs were eluted into empty 96-well plates with 200 μl of 1.2 M ammonium formate/0.1 formic acid. The content of the wells was added to 3 mls of scintillation cocktail, and the radioactivity was determined by liquid scintillation counting.

human α2C adrenoceptor = biological target: T2, human α2C adrenoceptor (Homo sapiens, UniProt P18825); test: Inhibition of forskolin stimulated adenylyl cyclase, α2C; settings: for Emax: read-out: intrinsic activity (i.a.) α2C
T2 construct: expressed in transfected cells; host or cells: LM(tk-)
T2 sequence (P18825 1-462): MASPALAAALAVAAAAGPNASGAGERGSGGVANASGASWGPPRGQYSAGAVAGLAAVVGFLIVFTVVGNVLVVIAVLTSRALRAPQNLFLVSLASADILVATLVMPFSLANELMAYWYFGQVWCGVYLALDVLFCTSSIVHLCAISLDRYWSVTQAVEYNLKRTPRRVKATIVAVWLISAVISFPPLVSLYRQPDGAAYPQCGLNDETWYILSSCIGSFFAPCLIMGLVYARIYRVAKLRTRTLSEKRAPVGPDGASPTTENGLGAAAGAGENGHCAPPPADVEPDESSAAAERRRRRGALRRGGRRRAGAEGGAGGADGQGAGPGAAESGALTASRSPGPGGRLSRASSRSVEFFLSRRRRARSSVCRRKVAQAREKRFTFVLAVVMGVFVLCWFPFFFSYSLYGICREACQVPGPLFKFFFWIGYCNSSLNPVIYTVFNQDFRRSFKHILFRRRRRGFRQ
Procedure: α2 -Adrenoceptor-Mediated Inhibition of Forskolin Stimulated Adenylyl Cyclase
The agonist activity of test compounds was assayed by measuring their ability to inhibit adenylyl cyclase in cells stably transfected with each of the three cloned human α2 -adrenoceptors. LM(tk-) cells expressing the α2A - or the α2C -, as well as Y1 cells expressing the α2B -adrenoceptor were used. […] The formation of cyclic AMP was measured in cultures incubated with DMEM containing 1 mM theophylline. Twelve concentrations of the test compounds (from 10 pM to 100 μM) were added to the incubation medium and incubated at 37° C. for 20 min. Following this incubation step, 10 μM forskolin was added to stimulate the formation of cyclic AMP, and the cultures were incubated for another 10 min. The reaction was stopped by replacing the incubation medium with 100 mM HCl . The intracellular levels of cyclic AMP were measured by radioimmunoassay. The data from concentration-response curves was fitted to a four-parameter logistic equation, by non-linear regression analysis, to determine the pEC50 and intrinsic activity.

human α1A adrenoceptor = biological target: T3, human α1A adrenoceptor (Homo sapiens, UniProt P25100); test: cell-based; settings: for Emax: read-out: intrinsic activity (i.a.) α1A; for stimulation of inositol phosphate production, α1A: result in words
T3 sequence (P25100 1-572): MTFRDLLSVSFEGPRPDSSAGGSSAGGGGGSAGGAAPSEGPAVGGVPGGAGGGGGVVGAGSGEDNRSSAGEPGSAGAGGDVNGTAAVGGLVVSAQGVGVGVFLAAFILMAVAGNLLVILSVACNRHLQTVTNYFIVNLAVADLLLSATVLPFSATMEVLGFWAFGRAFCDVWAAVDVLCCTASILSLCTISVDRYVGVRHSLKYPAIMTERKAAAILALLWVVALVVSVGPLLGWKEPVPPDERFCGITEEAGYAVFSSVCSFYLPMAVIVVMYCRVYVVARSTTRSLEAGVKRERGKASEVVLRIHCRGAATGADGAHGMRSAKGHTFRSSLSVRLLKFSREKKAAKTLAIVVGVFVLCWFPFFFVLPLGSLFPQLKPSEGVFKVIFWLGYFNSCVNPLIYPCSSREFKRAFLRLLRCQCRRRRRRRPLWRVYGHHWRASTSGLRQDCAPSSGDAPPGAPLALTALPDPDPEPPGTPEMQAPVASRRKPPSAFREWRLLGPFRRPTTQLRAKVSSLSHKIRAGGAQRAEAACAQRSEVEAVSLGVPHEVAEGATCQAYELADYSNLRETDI
Procedure: as §1, §2, §3, §4

[1] = relative to reference full agonist (e.g., norepinephrine = unity)
[2] = agonist, inhibition of forskolin stimulated adenylyl cyclase, read-out: pEC50 α2C (converted)
[3] = agonist, phosphoinositide accumulation, read-out: pEC50 α1A (converted)

| SMILES | EC50 (human α1B adrenoceptor) | Emax (human α1B adrenoceptor; [1]) | stimulation of inositol phosphate production, α1B (human α1B adrenoceptor) | EC50 (human α2C adrenoceptor; [2]) | Emax (human α2C adrenoceptor; [1]) | EC50 (human α1A adrenoceptor; [3]) | Emax (human α1A adrenoceptor; [1]) | stimulation of inositol phosphate production, α1A (human α1A adrenoceptor) | Emax (human α1B adrenoceptor) | EC50 (human α2C adrenoceptor) | Emax (human α2C adrenoceptor) | EC50 (human α1A adrenoceptor) | Emax (human α1A adrenoceptor) | EC50 (human α1B adrenoceptor; agonist, phosphoinositide accumulation, read-out: pEC50 α1B (converted)) | intrinsic activity (i.a.) α2C (human α2C adrenoceptor; [1]) |
| --- | --- | --- | --- | --- | --- | --- | --- | --- | --- | --- | --- | --- | --- | --- | --- |
| CS(=O)(=O)Nc1c(O)ccc2c1CCCC2C1=NCCN1 (racemic) [Compound A-61603, (±)-N-[5-(4,5-Dihydro-1H-imidazol-2-yl)-2-hydroxy-5,6,7,8-tetra-hydronaphthalen-1-yl]methanesulfonamide] | 39.8 µM | 10% | virtually inactive | 0.02 µM | 90% | 25.1 µM | 10% | virtually inactive | – | – | – | – | – | – | – |
| COc1ccc(OC)c(C(O)CN)c1 (racemic) [ST-1059, (±)-2-Amino-1-(2, 5 dimethoxyphenyl) ethanol] | 6.31 µM | – | – | – | – | – | – | – | 10% | 0.501 µM | 50% | 1.58 µM | 10% | – | – |
| COc1ccc(SC)c2c1C[C@@H]1[C@@H](C2)OCCN1C (relative stereo) [SDZ NVI-085, (±)-trans-4-Methyl-6-methoxy-9-thiomethoxy-3,4,4a, 5,10,10a-hexahydro-2H-naphtho[2,3-b][1,4]oxazine] | – | – | – | > 100 µM | – | > 100 µM | – | – | 0% | – | 0% | – | 0% | > 100 µM | – |
| CN[C@@H](C)[C@H](O)c1ccccc1 [(-)-ephedrine] | 100 µM | – | – | – | – | – | – | – | 20% | 10 µM | 0% | 100 µM | 10% | – | – |
| C[C@H](N)[C@H](O)c1ccccc1 [(-)-norephedrine] | 31.6 µM | – | – | – | – | – | – | – | 0% | 0.126 µM | 60% | 15.8 µM | 30% | – | – |
| CNC[C@H](O)c1cccc(O)c1 [(-)-phenylephrine] | – | 90% | – | – | – | – | 70% | – | – | – | – | – | – | – | 0.9 |
| CNCCc1ccc(O)c(NS(C)(=O)=O)c1 [SK&F 102652] | – | – | virtually inactive | – | – | – | – | virtually inactive | 10% | – | 80% | – | 10% | – | – |
